# Experimental data as given in US8841456B2, “1,5-naphthyridine derivative or salt thereof” (FUJIFILM Corporation, priority 2011, dated 2014).
# Like-named read-outs stand apart in the source and are kept apart here.
# Columns and labels:
# human PI3Kα protein = target: T1, human PI3Kα protein (Homo sapiens, UniProt P42336); assay: PI3Kα enzyme assay (ADP-Glo kinase assay); assay type: biochemical; conditions: 3 nM PI3Kα, 50 μM PIP2, 100 μM ATP
# T1 construct: purchased Carna Biosciences, Inc; host or cells: Baculovirus expression system
# T1 sequence (P42336 whole entry): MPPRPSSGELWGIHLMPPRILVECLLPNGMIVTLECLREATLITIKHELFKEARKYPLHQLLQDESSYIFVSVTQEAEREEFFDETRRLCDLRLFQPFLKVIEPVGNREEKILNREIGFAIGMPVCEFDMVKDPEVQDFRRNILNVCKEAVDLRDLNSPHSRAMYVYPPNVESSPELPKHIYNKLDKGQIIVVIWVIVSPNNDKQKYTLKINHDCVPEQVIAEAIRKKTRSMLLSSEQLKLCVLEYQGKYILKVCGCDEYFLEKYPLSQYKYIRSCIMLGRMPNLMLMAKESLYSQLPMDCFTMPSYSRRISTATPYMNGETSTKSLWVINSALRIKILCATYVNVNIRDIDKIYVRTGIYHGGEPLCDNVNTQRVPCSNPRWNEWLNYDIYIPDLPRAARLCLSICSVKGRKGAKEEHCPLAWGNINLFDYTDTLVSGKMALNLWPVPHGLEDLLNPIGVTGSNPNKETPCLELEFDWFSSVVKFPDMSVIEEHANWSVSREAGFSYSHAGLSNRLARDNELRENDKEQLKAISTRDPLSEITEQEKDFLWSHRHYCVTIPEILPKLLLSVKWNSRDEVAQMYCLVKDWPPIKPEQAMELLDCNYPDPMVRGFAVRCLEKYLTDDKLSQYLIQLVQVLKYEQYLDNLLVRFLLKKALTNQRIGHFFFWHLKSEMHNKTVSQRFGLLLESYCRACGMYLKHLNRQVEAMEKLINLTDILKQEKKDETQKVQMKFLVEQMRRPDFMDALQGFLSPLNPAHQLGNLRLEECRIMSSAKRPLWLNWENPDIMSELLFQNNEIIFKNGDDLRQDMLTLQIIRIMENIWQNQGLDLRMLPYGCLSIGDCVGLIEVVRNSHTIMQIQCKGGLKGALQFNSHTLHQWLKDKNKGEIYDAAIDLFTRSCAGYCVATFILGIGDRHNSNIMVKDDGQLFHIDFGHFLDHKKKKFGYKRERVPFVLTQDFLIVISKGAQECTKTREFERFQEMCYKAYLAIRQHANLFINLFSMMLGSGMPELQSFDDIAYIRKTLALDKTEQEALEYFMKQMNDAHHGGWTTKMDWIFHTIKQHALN
# T1 sequence (P27986 whole entry partner): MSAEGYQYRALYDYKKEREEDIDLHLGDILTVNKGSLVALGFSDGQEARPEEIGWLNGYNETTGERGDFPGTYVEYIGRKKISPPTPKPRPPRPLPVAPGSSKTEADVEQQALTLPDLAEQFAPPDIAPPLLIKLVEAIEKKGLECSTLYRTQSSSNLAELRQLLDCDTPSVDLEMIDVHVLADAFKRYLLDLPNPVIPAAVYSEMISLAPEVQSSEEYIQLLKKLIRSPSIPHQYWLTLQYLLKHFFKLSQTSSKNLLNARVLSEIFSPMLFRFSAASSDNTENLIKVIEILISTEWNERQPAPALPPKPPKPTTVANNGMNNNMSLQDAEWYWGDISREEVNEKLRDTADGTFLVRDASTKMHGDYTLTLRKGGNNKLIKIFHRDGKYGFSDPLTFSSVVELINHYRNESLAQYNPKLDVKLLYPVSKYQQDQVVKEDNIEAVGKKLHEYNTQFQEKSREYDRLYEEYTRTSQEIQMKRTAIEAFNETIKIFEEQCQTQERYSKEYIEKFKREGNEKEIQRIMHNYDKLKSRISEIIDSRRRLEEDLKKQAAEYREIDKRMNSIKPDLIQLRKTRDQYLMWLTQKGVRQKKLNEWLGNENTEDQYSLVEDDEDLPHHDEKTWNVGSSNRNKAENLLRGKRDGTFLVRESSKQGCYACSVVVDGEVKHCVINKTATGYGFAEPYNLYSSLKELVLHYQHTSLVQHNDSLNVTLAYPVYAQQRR
# Protocol: Evaluation of the PI3Kα inhibitory activity of the compound of the present invention was carried out according to the method as described below.
# For the PI3Kα enzyme assay, biotinylated product of a human PI3Kα protein produced using a Baculovirus expression system (Carna Biosciences, Inc.) was used. Further, for the detection of the enzyme activity, an ADP-Glo kinase assay (PROMEGA Corporation) was used.
# 10 μL of a reaction solution (3 nM PI3Kα, 40 mM Tris-HCl, 20 mM MgCl2, 0.1% BSA, pH 7.5) including the human PI3Kα protein and a test compound at a predetermined concentration was incubated at room temperature for 15 minutes. Thereafter, 5 μL of a mixed solution of L-α-Phosphatidylinositol 4,5-diphosphate (PIP2) (SIGMA-ALDLICH) which was a substrate and ATP(SIGMA-ALDLICH) was added thereto to a final concentration of 50 μM and 100 μM, respectively, and the reaction solution was further incubated at 25° C. for 60 minutes to carry out an enzyme reaction.
# After the reaction, 15 μL of an ADP-Glo reagent (PROMEGA Corporation) was added and the resulting liquid was incubated at room temperature for 60 minutes, whereby the enzyme reaction was stopped. Thereafter, after further adding 30 μL of a Kinase Detection Reagent (PROMEGA Corporation) and standing the resulting solution at room temperature for 40 minutes, ADP produced by the enzyme reaction was quantified by luminescence intensity.
# For the measurement of luminescence intensity, EnVision (PerkinElmer, Inc.) was used.
# (§1) The inhibitory activity of the compounds was evaluated using an IC50 (50% inhibitory concentration). The IC50 was calculated using XLfit (IDBS).
# [1] = target: T2, glutathione S-transferase (GST)-fusion human ERK2 protein (Homo sapiens, UniProt P28482); assay: ERK2 enzyme assay (LabChip mobility shift); assay type: biochemical; conditions: 2 nM ERK2, 4.25 μM FL-Peptide 8, 43 μM ATP
# T2 construct: purchased Carna Biosciences, Inc; host or cells: E. coli expression system
# T2 sequence (P28482 whole entry, the tested form may be a part): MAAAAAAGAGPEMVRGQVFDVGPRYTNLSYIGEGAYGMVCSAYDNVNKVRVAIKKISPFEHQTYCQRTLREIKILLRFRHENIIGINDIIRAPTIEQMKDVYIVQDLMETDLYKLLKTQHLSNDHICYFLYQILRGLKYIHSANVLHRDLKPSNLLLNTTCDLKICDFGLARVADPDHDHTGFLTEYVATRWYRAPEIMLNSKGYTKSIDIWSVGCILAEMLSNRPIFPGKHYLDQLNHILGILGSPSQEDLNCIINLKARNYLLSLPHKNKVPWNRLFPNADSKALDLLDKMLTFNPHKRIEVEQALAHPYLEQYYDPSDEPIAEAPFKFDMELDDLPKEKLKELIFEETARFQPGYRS
# Protocol: Evaluation of the ERK2 inhibitory activity of the compound of the present invention was carried out according to the method as described below.
# For the ERK2 enzyme assay, a glutathione S-transferase (GST)-fusion human ERK2 protein (Carna Biosciences, Inc.) produced using an E. coli expression system was used.
# 12 μL of the reaction solution (2 nM ERK2, 100 mM Hepes, 10 mM MgCl2, 1.5 mM DTT, 0.003% Brij35, pH 7.5) including the ERK2 protein and a test compound at a predetermined concentration was incubatedat room temperature for 15 minutes. Thereafter, 3 μL of a mixed solution of FL-Peptide 8 (5-FAM-IPTSPITTTYFFFKKK-COOH) (Caliper Lifescience) which was a substrate and ATP(SIGMA-ALDLICH) were added thereto to a final concentration of 4.25 μM and 43 μM, respectively. The reaction solution was further incubated at 25° C. for 120 minutes to carry out an enzyme reaction.
# The enzyme reaction was stopped by adding 27 μL of a reaction-stopping solution (100 mM HEPES, 11.2 mM EDTA, 5.6% Brij35, pH 7.5) including a 0.5% Coating reagent 8 (PerkinElmer, Inc.) after the reaction. Thereafter, non-phosphorylated peptides and phosphorylated peptides were separated using LabChip Ez Reader (Caliper LifeScience, Inc.) to quantify the proportion of phosphorylated peptides.
# as §1
# [2] = IC50 class, read-out: PI3Kα Inhibitory Activity
# [3] = IC50 class, read-out: ERK2 Inhibitory Activity
Structure (SMILES),IC50 (human PI3Kα protein; [2]) [nM],"IC50 [1, 3] [nM]","IC50 (human PI3Kα protein; read-out: PI3Kα, IC50) [nM]","IC50 ([1]; read-out: ERK2, IC50) [nM]"
O=C(NCC1CCC(F)(F)CC1)Nc1ccc2ncc(-c3cnn(CCCN4CCOCC4)c3)cc2n1 [Compound 0180],< 100,< 100,,
CC(C)C(C)NC(=O)Nc1ccc2ncc(-c3cn[nH]c3)cc2n1 (stereo not shown) [Compound 0072],< 100,< 100,,
CN1CCN(c2cnc3ccc(NC(=O)NC4CCCC4)nc3c2)CC1 [Compound 0027],100 to 1000,100 to 1000,,
O=C(Nc1ccc2ncc(Nc3cc[nH]n3)cc2n1)NC1CCCC1 [Compound 0126],< 100,100 to 1000,,
O=C(NCCCc1ccccc1)Nc1ccc2ncc(-c3cn[nH]c3)cc2n1 [Compound 0095],100 to 1000,< 100,,
O=C(NCC1CCC(F)(F)CC1)Nc1ccc2ncc(-c3cn[nH]c3)cc2n1 [Compound 0113],100 to 1000,< 100,,
O=C(Nc1ccc2ncc(-c3cnn(CCN4CCNCC4)c3)cc2n1)NC1CCCC1 [Compound 0051],< 100,< 100,6,35
CN1CCN(c2cnc3ccc(NC(=O)NC4CCCC4)nc3c2)CC1=O [Compound 0155],< 100,100 to 1000,,
CN1CCC(n2cc(-c3cnc4ccc(NC(=O)NC5CCCC5)nc4c3)cn2)CC1 [Compound 0228],< 100,< 100,,
CCCCNC(=O)Nc1ccc2ncc(-c3cn[nH]c3)cc2n1 [Compound 0093],< 100,< 100,,
CN(C)CCNc1cnc2ccc(NC(=O)NC3CCCC3)nc2c1 [Compound 0011],100 to 1000,1000 to 10000,,
O=C(Nc1ccc2ncc(CN3CCOCC3)cc2n1)NC1CCCC1 [Compound 0132],1000 to 10000,1000 to 10000,,
CCCN1CCC(n2cc(-c3cnc4ccc(NC(=O)NC5CCCC5)nc4c3)cn2)CC1 [Compound 0229],< 100,100 to 1000,,
O=C(NC[C@@H]1CCCO1)Nc1ccc2ncc(-c3cn[nH]c3)cc2n1 [Compound 0193],100 to 1000,< 100,,
COCCn1cc(-c2cnc3ccc(NC(=O)NC4CCCC4)nc3c2)cn1 [Compound 0032],< 100,< 100,,
Cn1cc(-c2cnc3ccc(NC(=O)NC4CCCC4)nc3c2)cn1 [Compound 0003],< 100,< 100,,
CC(C)NC(=O)Nc1ccc2ncc(-c3cn[nH]c3)cc2n1 [Compound 0053],< 100,< 100,,
COC1CN(c2cnc3ccc(NC(=O)NC4CCCC4)nc3c2)C1 [Compound 0242],100 to 1000,100 to 1000,,
O=C(Nc1ccc2ncccc2n1)NC1CCCC1 [Compound 0116],100 to 1000,1000 to 10000,,
O=C(Nc1ccc2ncc(N3CCNCC3)cc2n1)NC1CCCC1 [Compound 0013],100 to 1000,100 to 1000,,
COc1ccc(Nc2cnc3ccc(NC(=O)NC4CCCC4)nc3c2)cc1OC [Compound 0030],< 100,> 10000,,
NC(=O)c1cnc2ccc(NC(=O)NC3CCCC3)nc2c1 [Compound 0130],100 to 1000,100 to 1000,,
O=C(NCCCCc1ccccc1Cl)Nc1ccc2ncc(-c3cn[nH]c3)cc2n1 [Compound 0165],100 to 1000,< 100,,
O=C(Nc1ccc2ncc(-c3nn[nH]n3)cc2n1)NC1CCCC1 [Compound 0131],< 100,100 to 1000,,
CN(C)CCCn1cc(-c2cnc3ccc(NC(=O)NC4CCCC4)nc3c2)cn1 [Compound 0210],< 100,100 to 1000,,
O=C(Nc1ccc2ncc(Oc3cnccn3)cc2n1)NC1CCCC1 [Compound 0224],100 to 1000,1000 to 10000,,
O=C(Nc1ccc2ncc(-c3ccoc3)cc2n1)NC1CCCC1 [Compound 0119],100 to 1000,< 100,,

Structure (SMILES),IC50 (human PI3Kα protein; [2]) [nM],"IC50 [1, 3] [nM]","IC50 (human PI3Kα protein; read-out: PI3Kα, IC50) [nM]","IC50 ([1]; read-out: ERK2, IC50) [nM]"
CC(C)(C)OC(=O)N1CCN(c2cnc3ccc(NC(=O)NC4CCCC4)nc3c2)CC1 [Compound 0012],100 to 1000,1000 to 10000,,
O=C(NCCCCc1ccc(Cl)cc1)Nc1ccc2ncc(-c3cn[nH]c3)cc2n1 [Compound 0167],100 to 1000,< 100,,
COCCNc1cnc2ccc(NC(=O)NC3CCCC3)nc2c1 [Compound 0010],< 100,1000 to 10000,,
O=C(Nc1ccc2ncc(-c3cnn(CCCCN4C(=O)c5ccccc5C4=O)c3)cc2n1)NC1CCCC1 [Compound 0206],< 100,100 to 1000,,
CC(CCc1ccccc1)NC(=O)Nc1ccc2ncc(-c3cn[nH]c3)cc2n1 (stereo not shown) [Compound 0088],< 100,< 100,,
C[C@@H](CN(C)C)Cn1cc(-c2cnc3ccc(NC(=O)NC4CCCC4)nc3c2)cn1 [Compound 0245],< 100,100 to 1000,,
O=C(Nc1ccc2ncc(-c3cnn(CCCN4CCCC4)c3)cc2n1)NC1CCCC1 [Compound 0246],< 100,< 100,,
O=C(Nc1ccc2ncc(-c3ccnc(O)c3)cc2n1)NC1CCCC1 [Compound 0023],< 100,100 to 1000,,
C=CCNC(=O)Nc1ccc2ncc(-c3cn[nH]c3)cc2n1 [Compound 0056],100 to 1000,< 100,,
CC1(NC(=O)Nc2ccc3ncc(-c4cnn(CCCN5CCNCC5)c4)cc3n2)CCCC1 [Compound 0256],< 100,100 to 1000,,
N#Cc1cnc2ccc(NC(=O)NC3CCCC3)nc2c1 [Compound 0129],1000 to 10000,1000 to 10000,,
CC(C)(C)OC(=O)N1CC[C@H](NC(=O)Nc2ccc3ncc(-c4cn[nH]c4)cc3n2)C1 [Compound 0071],< 100,100 to 1000,,
O=C(Nc1ccc2ncc(-c3cnn(C4CCNC4)c3)cc2n1)NC1CCCC1 (stereo not shown) [Compound 0144],< 100,100 to 1000,,
COCCN(C)c1cnc2ccc(NC(=O)NC3CCCC3)nc2c1 [Compound 0026],< 100,100 to 1000,,
C[C@H](NC(=O)Nc1ccc2ncc(-c3cn[nH]c3)cc2n1)C1CCCC1 [Compound 0199],100 to 1000,< 100,,
Cn1cc(-c2cnc3ccc(NC(=O)NC4CCCC4)nc3c2Cl)cn1 [Compound 0226],< 100,< 100,,
O=C(Nc1ccc2ncc(-c3cnn(CC4CNC4)c3)cc2n1)NC1CCCC1 [Compound 0146],< 100,< 100,,
CN1CCC(NC(=O)Nc2ccc3ncc(-c4cn[nH]c4)cc3n2)CC1 [Compound 0078],1000 to 10000,100 to 1000,,
CCCCCNC(=O)Nc1ccc2ncc(-c3cn[nH]c3)cc2n1 [Compound 0094],< 100,< 100,,
O=C(Nc1ccc2ncc(-c3cccnc3)cc2n1)NC1CCCC1 [Compound 0005],100 to 1000,100 to 1000,,
O=C(Nc1ccc2ncc(-c3cn[nH]c3)cc2n1)NC1CCCC1 [Compound 0137],< 100,< 100,10,7
O=C(NCc1cccnc1)Nc1ccc2ncc(-c3cn[nH]c3)cc2n1 [Compound 0102],1000 to 10000,< 100,,
O=C(Nc1ccc2ncc(-c3ccnc(F)c3)cc2n1)NC1CCCC1 [Compound 0039],100 to 1000,< 100,,
O=C(NCC1CCCCO1)Nc1ccc2ncc(-c3cn[nH]c3)cc2n1 (stereo not shown) [Compound 0189],100 to 1000,< 100,,
COCCN(C)CCn1cc(-c2cnc3ccc(NC(=O)NC4CCCC4)nc3c2)cn1 [Compound 0037],< 100,< 100,,
O=C(Nc1ccc2ncc(-c3cn[nH]c3)cc2n1)N[C@@H]1CCC[C@H]1OCc1ccccc1 [Compound 0160],1000 to 10000,< 100,,
O=C(NCC1CCC1)Nc1ccc2ncc(-c3cn[nH]c3)cc2n1 [Compound 0188],< 100,< 100,,
